# Assay results reported in US20250270246A1, “LINCOSAMIDES AND USES THEREOF” (President and Fellows of Harvard College, priority 2022, published 2025).
# Structures can show the parent of a compound that is named as a salt. Where two headings read alike, the source gives them in different places.
# Columns and labels:
# Assay in all cases: MIC by broth microdilution (CLSI)
# Assay type in all cases: cell-based
# [1] = test system: A. baumannii ATCC 19606 (HAV#010); conditions: Acinetobacter baumannii, ATCC19606, 24 h, read-out: MIC A. baumannii ATCC 19606
# Procedure: (§1) Minimum inhibitory concentrations (MICs) were determined by the broth microdilution method following the Clinical and Laboratory Standards Institute (CLSI) guidelines. Test organisms consisted of standard reference strains from the American Type Culture Collection (ATCC; Manassa, VA, USA) and clinical isolates obtained from JMI Laboratories Inc. (North Liberty, IA, USA), Micromyx repository (MMX; Kalamazoo, MI, USA), and Massachusetts Eye and Ear Hospital (Boston, USA). Before the start of the MIC experiment, standard and test compound stock solutions were prepared in dimethyl sulfoxide (DMSO, Aldrich D2650) at a stock concentration of 2,560 μg/mL. The compound concentration range typically employed for each experiment was 64-0.06 μg/mL (2.5% final DMSO concentration). Iboxamycin was used as a comparator in all experiments. All bacterial strains were sub-cultured on blood agar plates (tryptic soy agar with 5% sheep blood, Hardy Diagnostics) and incubated overnight at 35° C. Organisms were suspended in cation-adjusted Mueller-Hinton broth (CaMHB, BD 212322) and optical density was adjusted to 0.5 McFarland standard. Suspensions were further diluted to obtain a final inoculum of 5×10^5 CFU/mL for broth microdilution experiments. The minimum concentration of compound required to inhibit visible bacterial growth after 24 h of incubation was recorded as the MIC in μg/mL. MICs for P. aeruginosa were recorded in cation-adjusted Mueller-Hinton broth which had been pre-treated with Chelex 100 ion exchange resin according to procedures reported in Ito et al. Antimicrob Agents Chemother (2016) 60 (12), 7396-7401.
# [2] = test system: E. coli ATCC 25922 (HAV#006); conditions: Escherichia coli, ATCC25922, 24 h, read-out: MIC E. coli ATCC 25922
# Procedure: as §1
# E. coli lptD mutant = conditions: Escherichia coli, 24 h, read-out: MIC E. coli lptD mutant, lptD mutant / ΔlptD mutant; CaMHB, 24 h incubation
# Procedure: as §1
# S. aureus Clinical (cfr) = conditions: Staphylococcus aureus, 24 h, read-out: MIC S. aureus Clinical (cfr)
# Procedure: as §1
# [3] = test system: E. faecalis ATCC 29212 (HAV#005); conditions: Enterococcus faecalis, ATCC29212, 24 h, read-out: MIC E. faecalis ATCC 29212
# Procedure: as §1
# E. coli ΔtolC = conditions: Escherichia coli, 24 h, read-out: MIC E. coli ΔtolC, ΔtolC; CaMHB, 24 h incubation
# Procedure: as §1
# [4] = test system: S. aureus ATCC 29213 (HAV#001); conditions: Staphylococcus aureus, ATCC29213, 24 h, read-out: MIC S. aureus ATCC 29213
# Procedure: as §1
# S. aureus MMX 3035 = conditions: Staphylococcus aureus, MMX3035, 24 h, read-out: MIC S. aureus MMX 3035
# Procedure: as §1
# E. faecium JMI-990536 = conditions: Enterococcus faecium, JMI990536, 24 h, read-out: MIC E. faecium JMI-990536
# Procedure: as §1
# K. pneumoniae JMI-991193 = conditions: Klebsiella pneumoniae, JMI991193, 24 h, read-out: MIC K. pneumoniae JMI-991193
# Procedure: as §1
# [5] = HAV#010, ATCC 19606, CaMHB, 24 h incubation
# [6] = HAV#006, ATCC 25922, CaMHB, 24 h incubation
# [7] = Clinical (cfr), CaMHB, 24 h incubation
# [8] = HAV#005, ATCC 29212, CaMHB, 24 h incubation
# [9] = HAV#001, ATCC 29213, CaMHB, 24 h incubation
# [10] = MMX 3035, CaMHB, 24 h incubation
# [11] = JMI-990536, CaMHB, 24 h incubation
# [12] = JMI-991193, CaMHB, 24 h incubation
Structure (SMILES),MIC [1] [µg/mL],MIC [2] [µg/mL],MIC (E. coli lptD mutant) [µg/mL],MIC (S. aureus Clinical (cfr)) [µg/mL],MIC [3] [µg/mL],MIC (E. coli ΔtolC) [µg/mL],MIC [4] [µg/mL],MIC (S. aureus MMX 3035) [µg/mL],MIC (E. faecium JMI-990536) [µg/mL],MIC (K. pneumoniae JMI-991193) [µg/mL],"MIC [1, 5] [µg/mL]","MIC [2, 6] [µg/mL]",MIC (S. aureus Clinical (cfr); [7]) [µg/mL],"MIC [3, 8] [µg/mL]","MIC [4, 9] [µg/mL]",MIC (S. aureus MMX 3035; [10]) [µg/mL],MIC (E. faecium JMI-990536; [11]) [µg/mL],MIC (K. pneumoniae JMI-991193; [12]) [µg/mL]
"CC(C)C[C@@H]1CCO[C@@H]2[C@H](CN[C@@H]2C(=O)N[C@@H]2C/C=C\C[C@@H](C(F)F)S[C@H]3O[C@H]2[C@H](O)[C@H](O)[C@H]3O)C1 [FSA1607044, (4S,5aS,8S,8aR)—N-((1R,3S,8R,9R,10R,11S,12R,Z)-3-(difluoromethyl)-10,11,12-trihydroxy-13-oxa-2-thiabicyclo[7.3.1]tridec-5-en-8-yl)-4-isobutyloctahydro-2H-oxepino[2,3-c]pyrrole-8-carboxamide formate salt]",8,8,2,16,0.125,0.5,0.125,2,1,16,,,,,,,,
"CC(C)C[C@@H]1CCO[C@@H]2[C@H](CN[C@@H]2C(=O)N[C@@H]2C/C=C\C[C@@H](CN3CCCC3)S[C@H]3O[C@H]2[C@H](O)[C@H](O)[C@H]3O)C1 [FSA1606086, (4S,5aS,8S,8aR)-4-isobutyl-N-((1R,3S,8R,9R,10R,11S,12R,Z)-10,11,12-trihydroxy-3-(pyrrolidin-1-ylmethyl)-13-oxa-2-thiabicyclo[7.3.1]tridec-5-en-8-yl) octahydro-2H-oxepino[2,3-c]pyrrole-8-carboxamide formate salt]",,,4,,,2,,,,,> 64,64,> 64,16,16,64,16,> 64
"CC(C)C[C@@H]1CCO[C@@H]2[C@H](CN[C@@H]2C(=O)N[C@@H]2C/C=C\C[C@@H](F)CS[C@H]3O[C@H]2[C@H](O)[C@H](O)[C@H]3O)C1 [FSA1607022, (4S,5aS,8S,8aR)—N-((1R,4R,9R,10R,11R,12S,13R,Z)-4-fluoro-11,12,13-trihydroxy-14-oxa-2-thiabicyclo[8.3.1]tetradec-6-en-9-yl)-4-isobutyloctahydro-2H-oxepino[2,3-c]pyrrole-8-carboxamide formate salt]",2,2,0.25,4,≤ 0.06,0.25,≤ 0.06,4,1,8,,,,,,,,
"CC(C)C[C@@H]1CCO[C@@H]2[C@H](CN[C@@H]2C(=O)N[C@H]2[C@H]3O[C@H](S[C@H](c4cn(-c5cc(F)c(F)cc5F)nn4)C/C=C\[C@H]2C)[C@H](O)[C@@H](O)[C@H]3O)C1 [FSA1609051, (4S,5aS,8S,8aR)-4-isobutyl-N-((1R,3S,7R,8R,9R,10R,11S,12R,Z)-10,11,12-trihydroxy-7-methyl-3-(1-(2,4,5-trifluorophenyl)-1H-1,2,3-triazol-4-yl)-13-oxa-2-thiabicyclo[7.3.1]tridec-5-en-8-yl) octahydro-2H-oxepino[2,3-c]pyrrole-8-carboxamide formate salt]",,,0.5,,,0.25,,,,,2,4,0.5,0.25,0.25,0.5,0.5,8
"CC(C)C[C@@H]1CCO[C@@H]2[C@H](CN[C@@H]2C(=O)N[C@H]2[C@H]3O[C@H](SCCC/C=C\[C@H]2C)[C@H](O)[C@@H](O)[C@H]3O)C1 [FSA1609096, (4S,5aS,8S,8aR)-4-isobutyl-N-((1R,8R,9R,10R,11R,12S,13R,Z)-11,12,13-trihydroxy-8-methyl-14-oxa-2-thiabicyclo[8.3.1]tetradec-6-en-9-yl) octahydro-2H-oxepino[2,3-c]pyrrole-8-carboxamide formate salt]",,,0.125,,,0.25,,,0.125,,1,2,0.25,≤ 0.06,≤ 0.06,0.25,,8
"CC(C)C[C@@H]1CCO[C@@H]2[C@H](CN[C@@H]2C(=O)N[C@@H]2C/C=C\C[C@@H](c3cn(-c4ccccc4)nn3)S[C@H]3O[C@H]2[C@H](O)[C@H](O)[C@H]3O)C1 [FSA1607075, (4S,5aS,8S,8aR)-4-isobutyl-N-((1R,3S,8R,9R,10R,11S,12R,Z)-10,11,12-trihydroxy-3-(1-phenyl-1H-1,2,3-triazol-4-yl)-13-oxa-2-thiabicyclo[7.3.1]tridec-5-en-8-yl) octahydro-2H-oxepino[2,3-c]pyrrole-8-carboxamide formate salt]",,,2,,,2,,,,,8,4,8,2,2,4,2,32
"C#C[C@@H]1C/C=C\C[C@@H](NC(=O)[C@H]2NC[C@@H]3C[C@H](CC(C)C)CCO[C@H]32)[C@H]2O[C@H](S1)[C@H](O)[C@@H](O)[C@H]2O [FSA1607077, (4S,5aS,8S,8aR)—N-((1R,3S,8R,9R,10R,11S,12R,Z)-3-ethynyl-10,11,12-trihydroxy-13-oxa-2-thiabicyclo[7.3.1]tridec-5-en-8-yl)-4-isobutyloctahydro-2H-oxepino[2,3-c]pyrrole-8-carboxamide formate salt]",8,4,1,16,≤ 0.125,1,≤ 0.125,4,2,16,,,,,,,,
"CC(C)C[C@@H]1CCO[C@@H]2[C@H](CN[C@@H]2C(=O)N[C@@H]2C/C=C\C[C@H](CN3CCOCC3)S[C@H]3O[C@H]2[C@H](O)[C@H](O)[C@H]3O)C1 [FSA1607020, (4S,5aS,8S,8aR)-4-isobutyl-N-((1R,3R,8R,9R,10R,11S,12R,Z)-10,11,12-trihydroxy-3-(morpholinomethyl)-13-oxa-2-thiabicyclo[7.3.1]tridec-5-en-8-yl) octahydro-2H-oxepino[2,3-c]pyrrole-8-carboxamide formate salt]",,,1,,,0.25,,,,,32,8,16,4,4,16,16,> 64
"CC(=O)OC[C@@H]1C/C=C\C[C@@H](NC(=O)[C@H]2NC[C@@H]3C[C@H](CC(C)C)CCO[C@H]32)[C@H]2O[C@H](S1)[C@H](O)[C@@H](O)[C@H]2O [FSA1607032, ((1R,3S,8R,9R,10R,11S,12R,Z)-10,11,12-trihydroxy-8-((4S,5aS,8S,8aR)-4-isobutyloctahydro-2H-oxepino[2,3-c]pyrrole-8-carboxamido)-13-oxa-2-thiabicyclo[7.3.1]tridec-5-en-3-yl)methyl acetate formate salt]",32,8,2,16,0.5,0.25,0.5,4,2,64,,,,,,,,
